Assay results from patent publication US12161756B2, “Pharmaceutical-loaded nanocomposite for treating pulmonary infections” (Imam Abdulrahman Bin Faisal University, priority 2021, dated 2024).

System: HFF normal cells (Human foreskin fibroblasts)
Method: Toxicity studies were carried out to evaluate any toxic effect of developed nanoformulations. Cells were treated for 48 h with the following conditions for Zinc-containing nanocomposites: ZnFe2O4/Halloysite, Halloysite, Dexamethasone (Dex), ZnFe2O4/Halloysite/Dex, ZnFe2O4/Halloysite/Dex/PEG, and PEG. Similar protocol was used for nickel-containing nanocomposites. Treatment concentrations were as follows: 0.0375, 0.075, 0.15, and 0.3 mg/mL. In addition, cells were treated with Dex at concentrations to reflect that loaded in the nanocomposite as follows: 0.00181, 0.00362, 0.00725, and 0.01449 mg/mL. […] To choose the optimal dose, cells were exposed to specific doses at different time points. Cells were treated with dose 2 (0.075 mg/mL, see FIG. 9A), dose 3 (0.15 mg/mL, see FIG. 9B), or dose 4 (0.3 mg/mL, see FIG. 9C) for 24, 48, and 72 h.

`C[C@@H]1C[C@H]2[C@@H]3CCC4=CC(=O)C=C[C@]4(C)[C@@]3(F)[C@@H](O)C[C@]2(C)[C@@]1(O)C(=O)CO` [Dexamethasone, dexamethasone] was tested, and the toxicity to cells was “induce toxicity” and the “dexamethasone dose found to be less toxic / usable dose” value (human, 48 h) was “up to 0.00362 mg/mL”.
